Test results reported in patent US20050089524A1, “Compositions and compounds for use as molecular adjuvant for a nicotine vaccine” (priority 2002, published 2005).
Square brackets hold non-standard residues; d marks the D form. Peptide text beside a SMILES is read from it.

Legend:
MUC1 epitope peptide = test: Serum antibody response to MUC1 epitope in immunized mice (RIA); assay type: in vivo; details: C57Bl6 and Balb/c mice, 100 μg i.p. with RIBI adjuvant, three immunizations, sera at 6 weeks
Text: iii. Animal Models. The strains of mice used for this example were inbred females 6 to 12 week old C57Bl6(H-2^b) and Balb/c (H-2^d), which were obtained from Jackson labs (Bar Harbor, Me.). […] The MUC1 peptide selected for these studies contained a motif that may bind to the H-2K^b molecule of the C57Bl6 mice; therefore, a strain of mouse that lacked this class I molecule binding motif (Balb/c) was also studied to determine the relative contribution of the class I binding motif to the antigen presentation properties of these peptides.
iv. Immunization protocol. Preimmune sera were obtained from mice, which were subsequently immunized intraperitoneally with 100 μg of the indicated peptide with RIBI adjuvant (MPL+TDM+CWS) (Sigma Immunochemicals). Animals were boosted twice at two week intervals using the same injection procedure. Sera were obtained following three immunizations (at 6 weeks).
v. Analysis of serum antibody responses. For radioimmunoassay (RIA), anti-peptide antibodies were determined, before and at different time points after immunization, in 96-well microtiter plates (Dynatech Laboratories, Inc.). Plates were coated with 50 μl of a 100 μg/ml appropriate peptide in phosphate-buffered saline (PBS) pH 7.4 solution overnight at 4° C. The wells were blocked by incubation with 5% dry milk in PBS pH 7.4 for at least two hours. Anti-peptide antibody titers were determined using serial dilutions of sera. The sera were diluted with PBS containing 0.05% Tween-20, pH 7.4 (washing buffer) and 50 μl of each dilution was incubated at 37° C. for 1 hour. The wells were then drained, washed 4 times with PBS-Tween and 50 μl of ^125I-goat anti-mouse Ab (1-2×10^4 cpm/well) was added and incubated for 1 hr at 25° C. After washing, specific radioactivity was recorded in a gamma counter (1272 CliniGamma, LKB).
vi. Experimental groups. […]

C5aR = target: T1, C5aR (Homo sapiens, UniProt P21730); test: Binding affinity for C5aRs on human PMNs (125I-C5a competition)
T1 construct: endogenous in cells; host or cells: intact human PMNs (polymorphonuclear leukocytes)
T1 sequence (P21730 1-350): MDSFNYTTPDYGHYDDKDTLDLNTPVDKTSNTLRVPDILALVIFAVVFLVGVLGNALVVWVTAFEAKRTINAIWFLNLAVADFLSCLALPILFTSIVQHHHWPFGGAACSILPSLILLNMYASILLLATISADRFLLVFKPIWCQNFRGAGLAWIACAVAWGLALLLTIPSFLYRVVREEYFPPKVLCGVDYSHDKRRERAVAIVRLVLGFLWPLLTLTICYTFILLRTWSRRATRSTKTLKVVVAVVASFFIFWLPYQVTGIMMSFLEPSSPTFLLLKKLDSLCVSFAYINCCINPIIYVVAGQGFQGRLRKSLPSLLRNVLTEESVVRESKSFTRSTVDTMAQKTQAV
Experimental: Pharmacologic assays. C5a-like agonistic activity was assessed by the ability of the peptides to induce smooth muscle contraction of human umbilical artery and […] from human PMNs according to previously published methods (Sanderson et al., 1994, supra; Sanderson et al., J. Med. Chem. 38, 3669, 1995; Finch et al., J. Med. Chem. 40, 877, 1997). Full concentration-response curves were generated for individual peptides and natural C5a in each assay and the EC50 values (the concentration of peptide producing 50% of the maximal response to each peptide) were calculated. pD2 transforms [−log EC50 (M)] were calculated for each concentration-response curve and reported as the mean±SE. Peptide binding affinity to the C5aR was evaluated on intact human PMNs by a competition assay using ^125I-C5a according to previously described methods (Sanderson et al., 1995, supra; Finch et al., 1997, supra). Statistical analysis of the values obtained from pharmacologic assays was performed using one-way analysis of variance (ANOVA).

human umbilical artery = test: Smooth muscle contraction of human umbilical artery; assay type: cell-based; details: for EC50: concentration resulting in 50% maximum contraction; for pD2 ± SE: −log EC50 (M), mean ± SE, n 3
Experimental: (§1) Pharmacologic assays. […] Statistical analysis of the values obtained from pharmacologic assays was performed using one-way analysis of variance (ANOVA).

[1] = tested on: 51Cr-labeled P815S (HBsAg transfectant) target cells; test: HBsAg-specific CTL response of immunized mice (51Cr-release assay); assay type: in vivo, BALB/c mice; details: for antigen-specific CTL response: three s.c. injections of 50 μg at 21 day intervals, no added adjuvant; for % Specific Lysis: s.c. in PBS, boost day 21, spleen cells day 42
human PMNs = test: MPO release from human PMNs; assay type: cell-based; details: for EC50: concentration resulting in 50% maximum release of myeloperoxidase; for pD2 ± SE: −log EC50 (M), mean ± SE, n 3
Experimental: as §1

MUC1 peptide = test: MUC1-specific antibody isotype titers in immunized mice (ELISA); assay type: in vivo
[2] = target: C5a receptor (C5aR) expressed on the surface of human PMNs (human) (UniProt P21730); test: competition with 125I-C5a on intact human PMNs
[3] = target: C5a receptor (C5aR) expressed on the surface of human PMNs (human) (UniProt P21730); test: cell-based or functional assay
[4] = target: C5a receptor (C5aR) expressed on the surface of human PMNs (human) (UniProt P21730); test: competition with 125I-C5a on intact human PMNs; concentration giving 50% inhibition of 125I-C5a binding
[5] = Anti-nicotine antibodies in immune serum of rats (ELISA); assay type: in vivo, Wistar rats
Experimental: ii. Animal Models. Five groups of male Wistar rats (ca 275 g) were immunized every other week with: 1) PBS 2) Nic-[…]aR (Nic-SEQ ID NO:1), 3) Nic-[…]aR (Nic-SEQ ID NO:1) in Freund's adjuvant, 4) Nic-[…]aR (Nic-SEQ ID NO:2), and 5) Nic-[…]aR (Nic-SEQ ID NO:2) in Freund's adjuvant. Primary immunizations were accomplished by subcutaneous (s.c.) and intrapertioneal (i.p.) injection of 100 μg of the peptides as indicated above in the presence or absences of complete Freund's adjuvant. Boosting was performed in identical fashion at two-week internals with 100 μg of the peptides in the presence of absence of Freund's adjuvant. Sera were obtained by retro-orbital sinus puncture one week after the third injection.

[6] = five C57BL6 mice, mean titer of responders, sera screened against MUC1 peptide
[7] = 100 μg s.c. and i.p., sera one week after the third injection

## YKQGGFLGL [peptide 1]
MUC1 epitope peptide
  antibody response to MUC1 epitope (RIA): no appreciable increase in antibody response

## CC[C@H](C)[C@H](N)C(=O)N1CCC[C@H]1C(=O)N[C@@H](CCC(N)=O)C(=O)N[C@@H](CO)C(=O)N[C@@H](CC(C)C)C(=O)N[C@@H](CC(=O)O)C(=O)N[C@@H](CO)C(=O)N[C@@H](Cc1c[nH]c2ccccc12)C(=O)N[C@@H](Cc1c[nH]c2ccccc12)C(=O)N[C@H](C(=O)N[C@@H](CO)C(=O)N[C@@H](CC(C)C)C(=O)N[C@@H](CCCNC(=N)N)C(=O)N[C@H](C(=O)N[C@@H](CCCNC(=N)N)C(=O)N[C@@H](CCCNC(=N)N)C(=O)N[C@@H](Cc1ccc(O)cc1)C(=O)N[C@@H](CO)C(=O)N[C@@H](Cc1ccccc1)C(=O)N[C@@H](CCCCN)C(=O)N1CCC[C@H]1C(=O)N[C@@H](CCSC)C(=O)N1CCC[C@H]1C(=O)N[C@@H](CC(C)C)C(=O)N[C@H](C)C(=O)N[C@@H](CCCNC(=N)N)C(=O)O)C(C)C)[C@@H](C)O (H-IPQSLDSWWTSLRVRRYSFKPMPL[dA]R-OH; N-terminus assumed)
C5aR
  EC50: 529 nM
  IC50: 525 nM
Human umbilical artery
  EC50: 180 nM
  pD2 ± SE: 6.67 ± 0.22
[1]
  antigen-specific CTL response: able to elicit a specific CTL response that was significantly above background levels
Human PMNs
  EC50: 2150 nM
  pD2 ± SE: 5.61 ± 0.19

## CC[C@H](C)[C@H](N)C(=O)N1CCC[C@H]1C(=O)N[C@@H](CCC(N)=O)C(=O)N[C@@H](CO)C(=O)N[C@@H](CC(C)C)C(=O)N[C@@H](CC(=O)O)C(=O)N[C@@H](CO)C(=O)N[C@@H](Cc1c[nH]c2ccccc12)C(=O)N[C@@H](Cc1c[nH]c2ccccc12)C(=O)N[C@H](C(=O)N[C@@H](CO)C(=O)N[C@@H](CC(C)C)C(=O)N[C@@H](Cc1ccc(O)cc1)C(=O)N[C@@H](CO)C(=O)N[C@@H](Cc1ccccc1)C(=O)N[C@@H](CCCCN)C(=O)N1CCC[C@H]1C(=O)N[C@@H](CCSC)C(=O)N1CCC[C@H]1C(=O)N[C@@H](CC(C)C)C(=O)N[C@H](C)C(=O)N[C@@H](CCCNC(=N)N)C(=O)O)[C@@H](C)O (H-IPQSLDSWWTSLYSFKPMPL[dA]R-OH; N-terminus assumed)
C5aR
  EC50: 3690 nM
  IC50: 3720 nM
Human umbilical artery
  EC50: 210 nM
  pD2 ± SE: 6.68 ± 0.17
[1]; Effector:Target Ratio 6.25:1
  % Specific Lysis: 1%
[1]; Effector:Target Ratio 12.5:1
  % Specific Lysis: 2%
[1]; Effector:Target Ratio 25:1
  % Specific Lysis: 4%
[1]; Effector:Target Ratio 50:1
  % Specific Lysis: 6%
[1]
  antigen-specific CTL response: lack of a CTL response
Human PMNs
  EC50: 1580 nM
  pD2 ± SE: 5.80 ± 0.04

## YKQGGFLGLYSFKPMPLaR [peptide 3]
MUC1 peptide; [6]
  MUC1 specific Ab titer, IgA: 0
  MUC1 specific Ab titer, IgG1: 0
  MUC1 specific Ab titer, IgG2a: 1260
  MUC1 specific Ab titer, IgG2b: 1780 (5/5)
  MUC1 specific Ab titer, IgG3: 0 (5/5)
  MUC1 specific Ab titer, IgM: 6310 (5/5)
MUC1 peptide; immunized mice, FIG. 3
  isotypes of the anti-peptide antibodies produced: IgM, IgG2a, and IgG2b
MUC1 peptide; immunized mice, FIG. 4
  specificity of the antibody response for the MUC1 epitope: includes a high percentage of antibodies that are specific for the MUC1 epitope
MUC1 epitope peptide
  antibody response to MUC1 epitope (RIA): substantial responses were produced

## YSFKPMPLaRKQGGFLGL [peptide 4]
MUC1 epitope peptide
  antibody response to MUC1 epitope (RIA): immune responses were not produced

## C5a C-terminal decapeptide agonist analog YSFKPMPLaR
[2]
  pD2 (-log EC50 (M)): 5.63
[3]
  smooth muscle contraction of human umbilical artery, EC50: 10 nM
  smooth muscle contraction of human umbilical artery, pD2 (-log EC50 (M)): 6.99
[4]
  EC50: 2340 nM

## Nic-YKQGGFLGLYSFKPMPLaR [B-cell-C5a-Nic]
[5]; [7]
  Modified Minus Unmodified, BSA: 0 ng/mL
  Modified Minus Unmodified, BSA-Nic: 33,943 ng/ml
  Raw Data, plate coated with BSA: 1,298 ng/ml
  Raw Data, plate coated with BSA-Nic: 35,241 ng/ml
[5]; in the presence of Freund's adjuvant, FIG. 7
  antibody reactivity on other nicotine-modified peptides: 172,647 ng/ml
Male Sprague-Dawley rats; 1000 mg (500 mg s.c. and 500 mg i.p.) in saline, boosted weekly for 2 weeks, nicotine 0.4 mg/kg s.c.
  dipper entries on nicotine sessions, first cycle: significantly less dipper entries than non-vaccinated rats on nicotine Sessions 2 and 3
Male Sprague-Dawley rats; first cycle
  index of learning-elevation score for the first light: does not differ between vaccinated and non-vaccinated rats
Male Sprague-Dawley rats; nicotine not present
  dipper entries on saline sessions: does not differentially affect behavior in this preparation when nicotine is not present
